The test system of assay [1] is M0 macrophages (hMDMs). The experiment in a line: Dosage response of cell shape change on M0 macrophages. In kind it is cell-based, human.
In assay [2] the test system is hMDMs differentiated into M2 by IL-4 plus IL-13. The conditions noted are these: differentiated macrophages.
Description: (§1) Shown are comparison of Z-scores between 5 μM or 10 μM of compounds. […] Shown are comparison of Z-scores between 5 μM or 10 μM of compounds. […] EC and fitness of 21 M1-polarizing (triangle) and 19 M2-polarizing compounds (circle) were calculated by the Michaelis-Menten equation and plotted. Data were summarized from 3 independent experiments.
(§2) Human macrophages were seeded into optical 384-well plates. Sixteen hours later, medium in M1 plates were replaced by M1 differentiating medium (complete RPMI with 50 ng/mL IFNγ and 50 ng/mL TNFα) and medium in M2 plates by M2 differentiating medium (complete RPMI with 5 ng/mL IL-4 and 5 ng/mL IL-13). After 24 hrs cell differentiation, M1 plates (M1 macrophages) and M2 plates (M2 macrophages) were treated with M2-activating compounds and M1-activating compounds respectively for 24 hrs. Two independent experiments were performed with or without replacing differentiating medium right before treatment. Cell imaging and analysis were performed as indicated above.
(§3) To investigate whether the identified compounds could reprogram or reactivate macrophages after M1- or M2-like differentiation, we rescreened the hits on M1- or M2-activated macrophages. hMDMs were activated into M2-like macrophages by IL-4 plus IL-13 or M1-like macrophages by IFNγ plus TNFα. After removing the differentiating cytokines, M2-like macrophages were treated with each of the 166 M1-activating compounds and M1-like macrophages were treated with each of the 180 M2-activating compounds at a final concentration of either 5 μM and 10 μM. 24 hours later, cell images were taken and cell shapes were quantified. […] Dosage responses were carried out with 40 commercial available compounds (21 M1-activating and 19 M2-activating) on polarized macrophages.
(§4) We also rescreened the hits on differentiated macrophages in the presence of differentiating cytokines: either IL-4 plus IL-13 or IFNγ plus TNFα.
For assay [3] the test system is unchanged. The experiment in a line: Reprogramming screen and dosage response on M2-like differentiated macrophages.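 Note: human monocyte-derived macrophages held 24 h in 5 ng/mL IL-4 plus IL-13 before 24 h compound exposure, with cell shape measured from images in 384-well plates.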 The conditions noted are these: Homo sapiens, Macrophage, 24 h, read-out: EC.
Description: as §1, §2, §3, §4
For assay [4], the system named is bone marrow derived macrophages (BMDMs). The experiment in a line: Seahorse ECAR (glycolysis) in BMDMs. The conditions noted are these: macrophages, NOX inhibition. The assay is classed as cell-based, mouse. The protocol: FIGS. 21A-21I show DPI stimulates glycolysis through GPR3 and β-arrestin2. FIGS. 21A-21B show DPI-stimulated glycolysis is independent of the NOX activity. […] The mean fluorescence intensity (MFI) of 2-NBDG in cells was measured by flow cytometry and normalized to DMSO controls of wildtype BMDMs. Data are presented as the mean±sd (n=3). […] ImKCs were transfected with siRNA specific for Gpr3 or a scramble siRNA as control. […] Data are presented as the mean±sd (n=4). […] Data are presented as the mean±sd (n=12). […] Abbr2^−/− ImKC were constructed by CRISPR-Cas9-mediated gene editing. […] Data are presented as the mean±sd (n=4). […]
Specific parameters for glycolytic capacity and glycolytic reserve were calculated and summarized based on two independent experiments. […]
FIGS. 29A-29B show comparison of DPI's effect on glycolysis in wild-type and Pkm^−/− BMDMs. […] ImKCs were treated with DMSO or DPI alone (500 nM) or DPI plus ERK1/2 inhibitor (SCH772984, […]) for 6 hrs and the enzymatic activities of PKM2 (c) and GAPDH (d) were measured by colorimetric assay kits (Biovision). […]
OCR and ECAR were measured in isolated tissues or cultured ImKCs using the Seahorse XFe Extracellular Flux Analyzer (Agilent). […] Glucose levels were determined using a glucose (GO) assay kit (Sigma). […] Lactate levels were determined using a lactate assay kit (Eton Bioscience). […]

In assay [5] the test system is PKM2. The assay is described as follows: PKM enzymatic activity (colorimetric kit) in treated ImKCs. The settings on record: ERK1/2 phosphorylation inhibited. In kind it is cell-based, mouse. How it is done: Data are presented as the mean±sd (n=4). […] Data are presented as the mean±sd (n=6).
FIGS. 29A-29B show comparison of DPI's effect on glycolysis in wild-type and Pkm^−/− BMDMs. […] FIGS. 29C-29D show activation of PKM2 and GAPDH enzymatic activity by DPI is inhibited by ERK1/2 inhibitor. ImKCs were treated with DMSO or DPI alone (500 nM) or DPI plus ERK1/2 inhibitor (SCH772984, […]) for 6 hrs and the enzymatic activities of PKM2 (c) and GAPDH (d) were measured by colorimetric assay kits (Biovision). Data are presented as the mean±sd (n=6).
The enzymatic activities of PKM and GAPDH were measured using the pyruvate kinase activity assay kit (Biovision, #K709) and GAPDH activity assay kit (Biovision, #K680) according to the manufacturer's protocols, respectively.

For `CCCCCCCCc1ccc(CCC(N)(CO)CO)cc1` [FTY720], the “Max absolute Z-value” in assay [1] was −11.58. For the same compound, the Category entry in assay [1] (M0 macrophages) and in assay [2] was “M1 (−4 for M1-activated macrophages)” each time. In addition, the EC (M1 Z-score cutoff) in assay [3] was found to be 0.131 µM.

On to `COc1cc(C(C)=O)ccc1O` [apocynin], for which the “basal level of glycolytic activity” value in assay [4] is given as “significantly reduced”. In assay [5], the “DPI's effect on PKM2 enzymatic activity” value is recorded as “abolished”.
